Measurements published in patent US20210308034A1, “PREBIOTIC COMPOSITIONS AND METHODS FOR MAINTAINING A HEALTHY SKIN MICROBIOTA” (KIMBERLY-CLARK WORLDWIDE, INC., priority 2018, published 2021).

Experiments:
Type in all cases: cell-based
[1] = tested on: Corynebacterium jeikum (ATCC 33033); assay: Carbohydrate Screening Test Method (Biolog phenotype microarray), Bacteria Code B
Experimental: The screening process was set up to determine which carbohydrate sources promoted commensal and/or pathogenic bacteria as well as to obtain individual and combinations of carbohydrate sources that could serve as microbiota balancing agents that can support or maintain the healthy proportions of commensal skin bacteria of Corynebacterium, Staphylococcus, and Micrococcus. The screening was conducted utilizing Biolog phenotype microarray plates (Hayward, Calif.). Table 1 provides a coded list of the commensal and pathogenic skin bacteria that the carbohydrates were screened against.
(§1) The Bacteria Codes B, D, E, I, and J are commensal bacteria and are shaded in Table 2 for references purposes. The bacteria codes were each placed in a carbon microarray plate and screened through the Carbohydrate Screening Test Method, as described in the Test Methods section herein. If a particular bacteria code utilized a specific carbohydrate source as described in the Carbohydrate Screening Test Method, then the corresponding cell in Table 2 was marked with a Y (short for “Yes”).
To do so, the respective microarray data for the 79 carbohydrate sources was run through the GrowthRates 2.1 program to obtain growth parameters, such as growth rates and maximum yield data as described by the Belingham Research Institute, Hall, B. G., H. Acar and M. Barlow. […] Mol. Biol. Evol. […] The max yield parameters generated were utilized to calculate ratios of tested commensal bacteria. The ratios calculated were compared back to the desired ratios identified above (Corynebacterium to Staphylococcus of 1.3, Corynebacterium to Micrococcus of 1.4, and Staphylococcus to Micrococcus of 1.1).
(§2) As an example of this methodology used to calculate the commensal bacteria ratios and the difference between the calculated ratios and the desired ratios, an example code from Table 3 will be described. […] The max yields were then used to calculate ratios the bacteria would reach in a co-culture.
A passage of the culture was made using a sterile swab and streaked onto two M9*2 agar plates to prepare the incubated culture for the phenotype microarray pate according to Table 4.
(§3) All cultures were harvested and washed before inoculation into the carbon microarray plate (BiOLOG, Hayward Calif.), with Biolog Plates PM1 and PM2 each having a source definition of Carbon. The bacteria on the M9*2 agar was suspended via agitation with an inoculating loop in 1 mL of M9*1 media for collection in a 1.7 mL micro centrifuge tube, as noted in Table 4.

[2] = tested on: Klebsiella pneumoniae (ATCC BAA-2146); details: Pathogenic; carbon microarray plate, OD 600 nm, 36 hr, 33° C.; positive = more than 0.05 OD units above zero; blank cell = not utilized
Text: (§4) After creating desired ratios of various commensal skin bacteria in a healthy skin microbiome, 188 different carbohydrate sources were screened as the next step in determining potential prospects for skin microbiota balancing agents. The screening process was set up to determine which carbohydrate sources promoted commensal and/or pathogenic bacteria as well as to obtain individual and combinations of carbohydrate sources that could serve as microbiota balancing agents that can support or maintain the healthy proportions of commensal skin bacteria of Corynebacterium, Staphylococcus, and Micrococcus. The screening was conducted utilizing Biolog phenotype microarray plates (Hayward, Calif.). Table 1 provides a coded list of the commensal and pathogenic skin bacteria that the carbohydrates were screened against.
Table 2 provides the results of screening various carbohydrate sources against the commensal and pathogenic bacteria codes listed in Table 1. The Bacteria Codes B, D, E, I, and J are commensal bacteria and are shaded in Table 2 for references purposes. The bacteria codes were each placed in a carbon microarray plate and screened through the Carbohydrate Screening Test Method, as described in the Test Methods section herein. If a particular bacteria code utilized a specific carbohydrate source as described in the Carbohydrate Screening Test Method, then the corresponding cell in Table 2 was marked with a Y (short for “Yes”). […] Many of the carbohydrate sources were utilized by both commensal and pathogenic bacteria, and as such, would not provide an advantage for selective growth of the commensal bacteria. However, some of the carbohydrate sources were only used by commensal bacteria and were identified for further testing as described herein.
(§5) The study employed 10 representative skin bacteria; Staphylococcus epidermidis ATCC 14990, Staphylococcus epidermidis M23864:W2, Staphylococcus aureus ATCC 6538, Staphylococcus aureus ATCC 25904 (Newman), Pseudomonas aeruginosa ATCC 9027, Micrococcus luteus ATCC […], Micrococcus luteus SK58, Klebsiella pneumoniae ATCC BAA-2146, Corynebacterium amycolatum SK46, and Corynebacterium minutissimum ATCC 23348. Cultures were started from freezer bead stocks by placing a single bead into 20 mL of tryptic soy broth (TSB) for all organisms except C. amycolatum SK46 and C. minutissimum ATCC 23348, which were placed into brain heart infusion (BHI) broth. Cultures were grown for about 24 hr at 37° C. except M. luteus ATCC 49732 and M. luteus SK58, which were grown at 30° C. A passage of the culture was made using a sterile swab and streaked onto two M9*2 agar plates to prepare the incubated culture for the phenotype microarray pate according to Table 4. Plates were incubated for about 24 hr at 37° C. except for M. luteus ATCC 49732 and M. luteus SK58, which were incubated at 30° C. for 24 hr.
as §3, with “4. The bacteria was suspended again in M9*1 media, agitated, and collected into the same 1.7 mL microcentrifuge tube used in the previous step. The tube was centrifuged for 5 minutes at 4,000×G, supernatant decanted, the pellet was resuspended in 1 mL of M9*1 media, and vortex. This washing process was repeated for a total of 4 times.” for “4.”
A tenfold dilution in M9*1 media was performed using 1 mL of the washed bacterial culture. Of the tenfold dilution 200 μL was placed in an untreated 96-well plate (Falcon, Pasadena Tx.) for an initial optical density (OD) reading at a wavelength of 600 nm. The OD was used to correlate to colony forming units (CFU) per milliliter by using linear regression lines for each organism. […]

[3] = tested on: Micrococcus luteus (SK58); assay: Carbohydrate Screening Test Method (Biolog phenotype microarray), Bacteria Code E; details: Commensal; carbon microarray plate, OD 600 nm, 36 hr, 33° C.; positive = more than 0.05 OD units above zero; blank cell = not utilized
Text: as §4, §1
To do so, the respective microarray data for the 79 carbohydrate sources was run through the GrowthRates 2.1 program to obtain growth parameters, such as growth rates and maximum yield data as described by the Belingham Research Institute, Hall, B. G., H. Acar and M. Barlow. 2014 Growth Rates Made Easy. Mol. Biol. Evol. 31:232-238 doi:10.1093/molbev/mst197. The max yield parameters generated were utilized to calculate ratios of tested commensal bacteria. The ratios calculated were compared back to the desired ratios identified above (Corynebacterium to Staphylococcus of 1.3, Corynebacterium to Micrococcus of 1.4, and Staphylococcus to Micrococcus of 1.1).
as §2

[4] = tested on: Pseudomonas aeruginosa (ATCC 9027); details: Pathogenic; carbon microarray plate, OD 600 nm, 36 hr, 33° C.; positive = more than 0.05 OD units above zero; blank cell = not utilized
Text: as §4, §1, §5
as §3, with “4. The bacteria was suspended again in M9*1 media, agitated, and collected into the same 1.7 mL microcentrifuge tube used in the previous step. The tube was centrifuged for 5 minutes at 4,000×G, supernatant decanted, the pellet was resuspended in 1 mL of M9*1 media, and vortex. This washing process was repeated for a total of 4 times.” for “4.”
A tenfold dilution in M9*1 media was performed using 1 mL of the washed bacterial culture. Of the tenfold dilution 200 μL was placed in an untreated 96-well plate (Falcon, Pasadena Tx.) for an initial optical density (OD) reading at a wavelength of 600 nm. The OD was used to correlate to colony forming units (CFU) per milliliter by using linear regression lines for each organism.

[5] = Commensal, carbon microarray plate, OD 600 nm, 36 hr, 33° C., positive = more than 0.05 OD units above zero, blank cell = not utilized

| Compound | Carbohydrate Screening Results, Bacteria Code B [1, 5] | Carbohydrate Screening Results, Bacteria Code C [2] | Carbohydrate Screening Results, Bacteria Code E [3] | Carbohydrate Screening Results, Bacteria Code F [4] | Carbohydrate Screening Results, Bacteria Code B ([1]; ATCC33033, 36 h) |
| --- | --- | --- | --- | --- | --- |
| C[C@H](O)[C@@H](O)[C@@H](O)[C@H](O)C=O [L-Fucose] | Y | Y | Y | – | – |
| O=C1O[C@@H]([C@H](O)CO)[C@H](O)[C@H]1O [D-Galactonic Acid-γ-Lactone] | – | Y | – | Y | – |
| O=C(O)[C@]1(O)C[C@@H](O)[C@@H](O)[C@H](O)C1 [Quinic Acid] | – | Y | – | Y | – |
| O=C(O)[C@H](O)[C@@H](O)C(=O)O [L-Tartaric Acid] | – | Y | – | Y | – |
| OC[C@@H](O)[C@@H](O)[C@@H](O)CO [Adonitol] | Y | Y | Y | Y | – |
| O=C[C@H](O)[C@@H](O)[C@@H](O)CO [L-Arabinose] | – | Y | – | Y | – |
| OC[C@@H](O)[C@@H](O[C@H]1O[C@H](CO)[C@@H](O)[C@H](O)[C@H]1O)[C@H](O)[C@@H](O)CO [Maltitol] | – | Y | – | Y | – |
| N[C@H]1C(O)O[C@H](CO)[C@@H](O)[C@@H]1O (stereo partly drawn) [D-Glucosamine] | – | Y | – | Y | – |
| OC[C@H]1O[C@H](OCC2O[C@@H](O)[C@H](O)[C@@H](O)[C@@H]2O)[C@H](O)[C@@H](O)[C@H]1O (stereo partly drawn) [D-Melibiose] | Y | Y | Y | Y | – |
| CC(O)(CC(=O)O)C(=O)O (centres unmarked) [Citramalic Acid] | – | – | – | Y | – |
| N[C@@H](Cc1c[nH]cn1)C(=O)O [L-Histidine] | – | Y | – | Y | – |
| O=C[C@H](O)[C@@H](O)[C@H](O)CO [D-Xylose] | – | Y | – | Y | – |
| NC(=O)C[C@H](N)C(=O)O [L-Asparagine] | Y | – | – | Y | – |
| CCCCCCCCCC(=O)O [Capric Acid] | – | – | – | Y | – |
| N[C@@H](CCC(=O)O)C(=O)O [L-Glutamic Acid] | – | – | – | Y | Y |
| OC[C@@H](O)C(O)[C@H](O)CO [D-Arabitol] | – | Y | – | Y | – |

| Compound | Carbohydrate Screening Results, Bacteria Code B [1, 5] | Carbohydrate Screening Results, Bacteria Code C [2] | Carbohydrate Screening Results, Bacteria Code E [3] | Carbohydrate Screening Results, Bacteria Code F [4] | Carbohydrate Screening Results, Bacteria Code B ([1]; ATCC33033, 36 h) |
| --- | --- | --- | --- | --- | --- |
| O[C@H]1[C@H](O)[C@@H](O)[C@H](O)[C@@H](O)[C@H]1O [m-Inositol] | Y | Y | Y | – | – |
| C[C@H](O)[C@H](O)[C@@H](O)[C@@H](O)C=O [L-Rhamnose] | Y | Y | Y | – | – |
| CCCCCC(=O)O [Caproic Acid] | – | – | – | Y | – |
| OC[C@@H](O)[C@@H](O)[C@H](O)[C@@H](O)CO [D-Sorbitol] | – | Y | Y | Y | – |
| NCCc1ccc(O)cc1 [Tyramine] | Y | Y | – | Y | – |
| O=C1CC[C@@H](C(=O)O)N1 [L-Pyroglutamic Acid] | – | – | – | Y | – |
| COC1OC(CO)C(O)C(O)C1O [α-Methyl-D-Galactoside] | Y | Y | Y | – | – |
| C=C(CC(=O)O)C(=O)O [Itaconic Acid] | – | – | – | Y | – |
| O=P(O)(O)O[C@H]1O[C@H](CO)[C@@H](O)[C@H](O)[C@H]1O [D-Glucose-1-Phosphate] | Y | Y | Y | – | – |
| CO[C@@H]1O[C@H](CO)[C@@H](O)[C@H](O)[C@H]1O [β-Methyl-D-Galactoside] | – | Y | – | Y | – |
| O=C[C@H](O)[C@@H](O)[C@H](O)[C@H](O)C(=O)O [D-Glucuronic Acid] | Y | Y | Y | Y | – |
| O=C(CO)[C@H](O)[C@H](O)[C@H](O)CO [D-Psicose] | Y | Y | Y | Y | – |
| O=C1O[C@H]([C@@H](O)CO)[C@@H](O)[C@@H]1O [L-Galactonic Acid-γ-Lactone] | Y | Y | – | – | – |
| CCCC(=O)O [Butyric Acid] | – | – | – | Y | – |
| Gentiobiose | – | Y | – | Y | – |
